This is an account of results in article PMC10762662, “An orally-available monovalent SMAC mimetic compound as a broad-spectrum antiviral” (Protein & Cell, 2023).

Common to all, as to assay: BIR3 domain binding IC50 (assay format not stated)
Assay [1] deals with T1, XIAP (Homo sapiens, UniProt P98170).
T1 construct: BIR3 domain

Assay [2] addresses T2, cIAP1 (Homo sapiens, UniProt Q13490).
T2 construct: gene BIRC2; BIR3 domain

Assay [3] deals with T3, cIAP2 (Homo sapiens, UniProt Q13489).
T3 construct: gene BIRC3; BIR3 domain
T3 sequence (Q13489 250-317 limits assumed): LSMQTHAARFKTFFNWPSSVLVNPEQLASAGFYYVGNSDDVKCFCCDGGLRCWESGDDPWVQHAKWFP

T2 sequence (Q13490 264-331 limits assumed): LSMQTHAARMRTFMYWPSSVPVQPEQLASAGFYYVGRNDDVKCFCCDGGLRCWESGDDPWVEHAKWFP
T1 sequence (P98170 241-356 limits assumed): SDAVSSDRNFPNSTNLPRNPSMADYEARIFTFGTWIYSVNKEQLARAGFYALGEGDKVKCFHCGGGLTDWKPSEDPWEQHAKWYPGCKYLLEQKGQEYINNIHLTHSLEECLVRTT

`CN[C@@H](C)C(=O)Nc1ccc(-c2c(C)nc3ccccn23)c(C#Cc2ccc3ncccc3c2)n1` [BI-82]: the IC50 in assay [1] stood at 273 ± 82.5 nM; in assay [2] it was 0.9 ± 0.15 nM; in assay [3], 17.1 ± 5.37 nM.

What is called IC50 is the point on the concentration scale where inhibition reaches its midpoint. High values mean lower potency, low ones higher potency.
